This is an account of results in patent US20260242419A1, “A CYCLIC PEPTIDE FOR TRAPPING INTERLEUKIN-1 BETA” (Merck Sharp & Dohme LLC, priority 2023, published 2026).

In the assay the target is T1, IL-1β (Homo sapiens, UniProt P01584).
T1 construct: purchased BioLegend 579404
The experiment in a line: IL-6 assay in MRC5 cells: inhibition of IL-1β induced IL-6 secretion (AlphaLISA). Type of assay: cell-based. The settings on record: inhibition of IL-1β induced IL-6 secretion in MRC5 cells; read-out: MRC5 IC50. Summed up: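 Compound was pre-incubated 1 h at ambient temperature with recombinant human IL-1β at 2λ EC80 before adding human lung fibroblast MRC5 cells (3000/well) in EMEM with 0.025% BSA. After overnight culture at 37 °C, 5% CO2, secreted IL-6 in conditioned medium was measured by AlphaLISA; IC50 from 4-parameter logistic fits.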

Starred links: 1 amine or outer side, 2 acyl side, 3 side chain; linkers in the order of their positions; H or OH if unused. Non-standard residues stand in square brackets, D forms with d. Residues, ends and D or L forms follow the SMILES beside them. Phe(4-(cis-4-COOH-cHex)) = N[C@@H](Cc1ccc([C@H]2CC[C@@H](C(=O)O)CC2)cc1)C(=O)O; Ala(piperidin-4-yl) = O=C([C@H](CC1CCN([*:3])CC1)N[*:1])[*:2]; Trp(βS-Me,4-F) = C[C@@H](c1c[nH]c2cccc(F)c12)[C@H](N)C(=O)O; Bip(4'-COOH) = N[C@@H](Cc1ccc(-c2ccc(C(=O)O)cc2)cc1)C(=O)O; dPro(4R-Bzl(4-F)) = O=C(O)[C@H]1C[C@@H](Cc2ccc(F)cc2)CN1; Ala(morpholin-4-yl) = N[C@@H](CN1CCOCC1)C(=O)O; Ala(piperazin-1-yl) = N[C@@H](CN1CCNCC1)C(=O)O; Ala(pyrimidin-5-yl) = N[C@@H](Cc1cncnc1)C(=O)O; Phe(4-COOH) = N[C@@H](Cc1ccc(C(=O)O)cc1)C(=O)O; Ala(4-Pyridazinyl) = N[C@@H](Cc1ccnnc1)C(=O)O; Ala(2-pyrazinyl) = N[C@@H](Cc1cnccn1)C(=O)O; Pro(cis-4-F) = O=C(O)[C@@H]1C[C@H](F)CN1; Ala(4-THP) = N[C@@H](CC1CCOCC1)C(=O)O; X10 = C[C@@](CCN)(N[*:1])C(=O)[*:2]; cisHyp = O=C(O)[C@@H]1C[C@H](O)CN1; d(αMeD) = C[C@@](N)(CC(=O)O)C(=O)O; 4Pal = N[C@@H](Cc1ccncc1)C(=O)O; Dab = NCC[C@H](N)C(=O)O; Aib = CC(C)(N)C(=O)O

T1 sequence (P01584 117-269): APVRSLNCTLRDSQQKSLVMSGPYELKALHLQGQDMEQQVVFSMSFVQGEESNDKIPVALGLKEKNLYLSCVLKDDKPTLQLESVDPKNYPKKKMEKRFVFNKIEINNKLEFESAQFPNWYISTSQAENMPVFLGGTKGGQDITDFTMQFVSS

One may read the IC50 as the concentration that inhibits the measured activity by half. With `C[C@@H](c1c[nH]c2cccc(F)c12)[C@@H]1NC(=O)[C@@H]2C[C@H](F)CN2C(=O)CNC(=O)[C@H](Cc2ccc(C(=O)O)cc2)NC(=O)[C@H](Cc2ccncc2)NC(=O)[C@H](Cc2ccc(-c3ccc(C(=O)O)cc3)cc2)NC(=O)[C@H]2C[C@@H](Cc3ccc(F)cc3)CN2C(=O)CNC(=O)[C@H](CCN)NC(=O)[C@H](CCC(N)=O)NC(=O)[C@H](Cc2ccnnc2)NC(=O)C(C)(C)NC(=O)[C@H](Cc2c[nH]c3ccccc23)NC(=O)[C@H](CCC(=O)O)NC(=O)C(C)(C)NC1=O` [Example 115] (cyclo([Bip(4'-COOH)][4Pal][Phe(4-COOH)]G[Pro(cis-4-F)][Trp(βS-Me,4-F)][Aib]EW[Aib][Ala(4-Pyridazinyl)]Q[Dab]G[dPro(4R-Bzl(4-F))])), the concentration for half-maximal inhibition (IC50) was determined as 0.023 nM. The same measure for `C[C@@H](c1c[nH]c2cccc(F)c12)[C@@H]1NC(=O)[C@@H]2C[C@H](F)CN2C(=O)CNC(=O)[C@H](Cc2ccc(C(=O)O)cc2)NC(=O)[C@H](Cc2ccnnc2)NC(=O)[C@H](Cc2ccc(-c3ccc(C(=O)O)cc3)cc2)NC(=O)[C@H]2C[C@@H](Cc3ccc(F)cc3)CN2C(=O)CNC(=O)[C@H](CCN)NC(=O)[C@H](CCC(N)=O)NC(=O)[C@H](Cc2cncnc2)NC(=O)C(C)(C)NC(=O)[C@H](Cc2c[nH]c3ccccc23)NC(=O)[C@H](CCC(=O)O)NC(=O)C(C)(C)NC1=O` [Example 116] (cyclo([Bip(4'-COOH)][Ala(4-Pyridazinyl)][Phe(4-COOH)]G[Pro(cis-4-F)][Trp(βS-Me,4-F)][Aib]EW[Aib][Ala(pyrimidin-5-yl)]Q[Dab]G[dPro(4R-Bzl(4-F))])): 0.04 nM.

For `C[C@@H](c1c[nH]c2cccc(F)c12)[C@@H]1NC(=O)[C@@H]2C[C@H](F)CN2C(=O)CNC(=O)[C@H](Cc2ccc(C(=O)O)cc2)NC(=O)[C@H](Cc2ccncc2)NC(=O)[C@H](Cc2ccc([C@H]3CC[C@@H](C(=O)O)CC3)cc2)NC(=O)[C@H]2C[C@@H](Cc3ccc(F)cc3)CN2C(=O)CNC(=O)[C@H](CCN)NC(=O)[C@H](CCC(N)=O)NC(=O)[C@H](Cc2cnccn2)NC(=O)C(C)(C)NC(=O)[C@H](Cc2c[nH]c3ccccc23)NC(=O)[C@H](CCC(=O)O)NC(=O)C(C)(C)NC1=O` [Example 117] (cyclo([Phe(4-(cis-4-COOH-cHex))][4Pal][Phe(4-COOH)]G[Pro(cis-4-F)][Trp(βS-Me,4-F)][Aib]EW[Aib][Ala(2-pyrazinyl)]Q[Dab]G[dPro(4R-Bzl(4-F))])), the IC50 was 0.027 nM. As to `C[C@@H](c1c[nH]c2cccc(F)c12)[C@@H]1NC(=O)[C@@H]2C[C@H](F)CN2C(=O)CNC(=O)[C@H](Cc2ccc(C(=O)O)cc2)NC(=O)[C@H](Cc2ccncc2)NC(=O)[C@H](Cc2ccc(-c3ccc(C(=O)O)cc3)cc2)NC(=O)[C@H]2C[C@@H](Cc3ccc(F)cc3)CN2C(=O)CNC(=O)[C@H](CCN)NC(=O)[C@H](CCC(N)=O)NC(=O)[C@H](CC2CCOCC2)NC(=O)C(C)(C)NC(=O)[C@H](Cc2c[nH]c3ccccc23)NC(=O)[C@H](CCC(=O)O)NC(=O)C(C)(C)NC1=O` [Example 118] (cyclo([Bip(4'-COOH)][4Pal][Phe(4-COOH)]G[Pro(cis-4-F)][Trp(βS-Me,4-F)][Aib]EW[Aib][Ala(4-THP)]Q[Dab]G[dPro(4R-Bzl(4-F))])), the 50% inhibitory concentration (IC50) turned out to be 0.016 nM. For the compound `C[C@@H](c1c[nH]c2cccc(F)c12)[C@@H]1NC(=O)[C@@H]2C[C@H](F)CN2C(=O)CNC(=O)[C@H](Cc2ccc(C(=O)O)cc2)NC(=O)[C@H](Cc2ccncc2)NC(=O)[C@H](Cc2ccc(-c3ccc(C(=O)O)cc3)cc2)NC(=O)[C@H]2C[C@@H](Cc3ccc(F)cc3)CN2C(=O)CNC(=O)[C@H](CCN)NC(=O)[C@H](CCC(N)=O)NC(=O)[C@H](CC2CCNCC2)NC(=O)C(C)(C)NC(=O)[C@H](Cc2c[nH]c3ccccc23)NC(=O)[C@H](CCC(=O)O)NC(=O)C(C)(C)NC1=O` [Example 119] (cyclo([Bip(4'-COOH)][4Pal][Phe(4-COOH)]G[Pro(cis-4-F)][Trp(βS-Me,4-F)][Aib]EW[Aib][Ala(piperidin-4-yl)]Q[Dab]G[dPro(4R-Bzl(4-F))])), the concentration for half-maximal inhibition (IC50) turned out to be 0.016 nM. The figure for `C[C@@H](c1c[nH]c2cccc(F)c12)[C@@H]1NC(=O)[C@@H]2C[C@H](F)CN2C(=O)CNC(=O)[C@H](Cc2ccc(C(=O)O)cc2)NC(=O)[C@H](Cc2ccncc2)NC(=O)[C@H](Cc2ccc(-c3ccc(C(=O)O)cc3)cc2)NC(=O)[C@H]2C[C@@H](Cc3ccc(F)cc3)CN2C(=O)CNC(=O)[C@H](CCN)NC(=O)[C@H](CCC(N)=O)NC(=O)[C@H](CN2CCNCC2)NC(=O)C(C)(C)NC(=O)[C@H](Cc2c[nH]c3ccccc23)NC(=O)[C@H](CCC(=O)O)NC(=O)C(C)(C)NC1=O` [Example 120] (cyclo([Bip(4'-COOH)][4Pal][Phe(4-COOH)]G[Pro(cis-4-F)][Trp(βS-Me,4-F)][Aib]EW[Aib][Ala(piperazin-1-yl)]Q[Dab]G[dPro(4R-Bzl(4-F))])) is 0.014 nM; for `C[C@@H](c1c[nH]c2cccc(F)c12)[C@@H]1NC(=O)[C@@H]2C[C@H](F)CN2C(=O)CNC(=O)[C@H](Cc2ccc(C(=O)O)cc2)NC(=O)[C@H](Cc2ccncc2)NC(=O)[C@H](Cc2ccc(-c3ccc(C(=O)O)cc3)cc2)NC(=O)[C@H]2C[C@@H](Cc3ccc(F)cc3)CN2C(=O)CNC(=O)[C@H](CO)NC(=O)[C@H](CCC(N)=O)NC(=O)[C@H](CC2CCNCC2)NC(=O)C(C)(C)NC(=O)[C@H](Cc2c[nH]c3ccccc23)NC(=O)[C@H](CCC(=O)O)NC(=O)C(C)(C)NC1=O` [Example 121] (cyclo([Bip(4'-COOH)][4Pal][Phe(4-COOH)]G[Pro(cis-4-F)][Trp(βS-Me,4-F)][Aib]EW[Aib][Ala(piperidin-4-yl)]QSG[dPro(4R-Bzl(4-F))])) it is 0.029 nM; for `C[C@@H](c1c[nH]c2cccc(F)c12)[C@@H]1NC(=O)[C@@H]2C[C@H](F)CN2C(=O)CNC(=O)[C@H](Cc2ccc(C(=O)O)cc2)NC(=O)[C@H](Cc2ccncc2)NC(=O)[C@H](Cc2ccc(-c3ccc(C(=O)O)cc3)cc2)NC(=O)[C@H]2C[C@@H](Cc3ccc(F)cc3)CN2C(=O)CNC(=O)[C@H](CO)NC(=O)[C@H](CCC(N)=O)NC(=O)[C@H](CN2CCNCC2)NC(=O)C(C)(C)NC(=O)[C@H](Cc2c[nH]c3ccccc23)NC(=O)[C@H](CCC(=O)O)NC(=O)C(C)(C)NC1=O` [Example 122] (cyclo([Bip(4'-COOH)][4Pal][Phe(4-COOH)]G[Pro(cis-4-F)][Trp(βS-Me,4-F)][Aib]EW[Aib][Ala(piperazin-1-yl)]QSG[dPro(4R-Bzl(4-F))])) it is 0.019 nM. The same measure for `C[C@@H](c1c[nH]c2cccc(F)c12)[C@@H]1NC(=O)[C@@H]2C[C@H](F)CN2C(=O)CNC(=O)[C@H](Cc2ccc(C(=O)O)cc2)NC(=O)[C@H](Cc2ccncc2)NC(=O)[C@H](Cc2ccc(-c3ccc(C(=O)O)cc3)cc2)NC(=O)[C@H]2C[C@@H](Cc3ccc(F)cc3)CN2C(=O)CNC(=O)[C@H](CO)NC(=O)[C@H](CCC(N)=O)NC(=O)[C@H](CN2CCOCC2)NC(=O)C(C)(C)NC(=O)[C@H](Cc2c[nH]c3ccccc23)NC(=O)[C@H](CCC(=O)O)NC(=O)C(C)(C)NC1=O` [Example 125] (cyclo([4Pal][Phe(4-COOH)]G[Pro(cis-4-F)][Trp(βS-Me,4-F)][Aib]EW[Aib][Ala(morpholin-4-yl)]QSG[dPro(4R-Bzl(4-F))][Bip(4'-COOH)])): 0.041 nM. For the compound `C[C@@H](c1c[nH]c2cccc(F)c12)[C@@H]1NC(=O)[C@@H]2C[C@H](O)CN2C(=O)CNC(=O)[C@H](Cc2ccc(C(=O)O)cc2)NC(=O)[C@H](Cc2ccncc2)NC(=O)[C@H](Cc2ccc(-c3ccc(C(=O)O)cc3)cc2)NC(=O)[C@H]2C[C@@H](Cc3ccc(F)cc3)CN2C(=O)CNC(=O)[C@H](CCN)NC(=O)[C@H](CCC(N)=O)NC(=O)[C@H](Cc2cncnc2)NC(=O)C(C)(C)NC(=O)[C@H](Cc2c[nH]c3ccccc23)NC(=O)[C@H](CO)NC(=O)C(C)(C)NC1=O` [Example 127] (cyclo([Bip(4'-COOH)][4Pal][Phe(4-COOH)]G[cisHyp][Trp(βS-Me,4-F)][Aib]SW[Aib][Ala(pyrimidin-5-yl)]Q[Dab]G[dPro(4R-Bzl(4-F))])), the IC50 was 0.013 nM. Regarding `C[C@@H](c1c[nH]c2cccc(F)c12)[C@@H]1NC(=O)[C@@H]2C[C@H](F)CN2C(=O)CNC(=O)[C@H](Cc2ccc(C(=O)O)cc2)NC(=O)[C@H](Cc2ccncc2)NC(=O)[C@H](Cc2ccc(-c3ccc(C(=O)O)cc3)cc2)NC(=O)[C@H]2C[C@@H](Cc3ccc(F)cc3)CN2C(=O)CNC(=O)[C@H](CCN)NC(=O)[C@H](CCC(N)=O)NC(=O)[C@H](Cc2cncnc2)NC(=O)[C@@](C)(CC(=O)O)NC(=O)[C@H](Cc2c[nH]c3ccccc23)NC(=O)[C@H](CO)NC(=O)C(C)(C)NC1=O` [Example 128] (cyclo([Bip(4'-COOH)][4Pal][Phe(4-COOH)]G[Pro(cis-4-F)][Trp(βS-Me,4-F)][Aib]SW[d(αMeD)][Ala(pyrimidin-5-yl)]Q[Dab]G[dPro(4R-Bzl(4-F))])), the IC50 worked out at 0.009 nM. The figure for `C[C@@H](c1c[nH]c2cccc(F)c12)[C@@H]1NC(=O)[C@@H]2C[C@H](F)CN2C(=O)CNC(=O)[C@H](Cc2ccc(C(=O)O)cc2)NC(=O)[C@H](Cc2ccncc2)NC(=O)[C@H](Cc2ccc(-c3ccc(C(=O)O)cc3)cc2)NC(=O)[C@H]2C[C@@H](Cc3ccc(F)cc3)CN2C(=O)CNC(=O)[C@H](CCN)NC(=O)[C@H](CCC(N)=O)NC(=O)[C@H](Cc2cncnc2)NC(=O)C(C)(C)NC(=O)[C@H](Cc2c[nH]c3ccccc23)NC(=O)[C@H](CO)NC(=O)[C@](C)(CCN)NC1=O` [Example 129] (cyclo([Bip(4'-COOH)][4Pal][Phe(4-COOH)]G[Pro(cis-4-F)][Trp(βS-Me,4-F)][X10]SW[Aib][Ala(pyrimidin-5-yl)]Q[Dab]G[dPro(4R-Bzl(4-F))])) is 0.019 nM.
